Assay type in all cases: physicochemical
Data set [1] in a line: HPLC assay of lactone ring hydrolysis, free in PBS or associated with liposomes or micelles. Particulars: for carboxylate/lactone ratio (C/L) free drug: final equilibrium; for t1/2 free drug: lactone hydrolysis; for lactone hydrolysis when associated with liposomes / duration of stability when bound to liposomes: DMPC and DMPG liposomes; for C/L drug DMPC Lip. / t1/2 drug DMPC Lip.: DMPC liposomes; for C/L drug DMPG Lip. / t1/2 drug DMPG Lip.: DMPG liposomes; for biologically active (lactone) form present after 48 hours: associated with DMPC or DMPG liposomes; for duration of stability when bound to liposomes: 0.29M lipid; for effect of liposome lysis by sonication: 5 minutes sonication. How it is done: A high performance liquid chromatography assay was used to determine the rate of hydrolysis of camptothecin and topotecan free in aqueous solution and to compare such rates with the rate of hydrolysis for the same drugs when bound to the DMPG and DMPC liposome membranes. The assay was conducted under near physiological conditions; the pH was 7.4, the temperature was 37° C. and the ionic strength was physiological. A Spectroflow model 980 fluorescence detector coupled to an HP 3392A integrator which acquired and processed the chromatograms, was used. For camptothecin, an Ultrasphere ODS C-18 250 mm long column was used. The mobile phase consisted of 32% acetonitrile, 67% 0.1M acetate buffer, pH 5.5, and 1% 01.M sodium dodecylsulfate at a flow rate of 1 mL/min. The detector was set to 370 nm excitation wavelength and a 418 nm long pass emission filter. A 1 μM solution of camptothecin in PBS was prepared and incubated at 37° C. Immediately after mixing the drug stock solution with PBS and at intervals of 5 min thereafter, 50 μL aliquots were taken out and mixed with 150 μL methanolic internal standard, 9-toluoylamidocamptothecin and either analyzed immediately or kept cold under dry ice. 150 μL of this mixture was diluted with 125 μL water and 200 μL was injected. The ratio of the peak areas corresponding to the intact lactone form of the camptothecin drug and the internal standard at a particular time was normalized to that at the time of mixing and was considered as the concentration of the intact lactone form.
For topotecan the excitation wavelength was 362 nm and the emission was observed through a 470 long wave pass filter. The stationary phase was Waters Nova-Pak C-18 150mm long column. The mobile phase consisted of 500 mL 0.1M KH2 PO4, 550 mL acetonitrile, 4.2 mL triethylamine (distilled over molecular sieves), 4.44 g sodium dioctylsulfosuccinate (DOSS), and 970 ml water. The pH was adjusted to 6.0 with H3 PO4. Internal standard solution contained 50×10^-9 g acridine from Eastman and 20×10^-3 M DOSS in methanol and was always kept cold at ≤-20° C. Next 150 μL or cold internal standard solution was mixed with 50 μL aliquot containing topotecan, centrifuged for 1 minute and the supernatant was either analyzed immediately or stored at -20° C. for analysis at a later time, within 2 hours. Samples were monitored at time points from 0 minutes, that is, immediately following dissolution, up to 72 hours.
The kinetics of lactone ring hydrolysis for free camptothecin, CMC and topotecan are shown in of FIGS. 7a, 7b and 7c. Analysis of the decay profile for camptothecin, CMC and topotecan free in PBS was accomplished using a nonlinear least squares program.

A short description of data set [2]: Fluorescence excitation and emission spectra of camptothecin drugs free in solution and bound to liposomes. Particulars: for λMAX emission, DMPC: DMPC liposomes 0.29 M; for λMAX emission, DMPC / λMAX emission, DMPG / λMAX emission, PBS: pH 7.4, 37° C.; for λMAX emission, DMPG: DMPG liposomes 0.29 M; for λMAX emission, PBS: free in PBS; for Relative Fluorescence: in PBS, pH 7.4, at excitation and emission λMAX; for λMAX excitation: pH 7.4, 2 μM drug, PBS. An excerpt:
The camptothecin drugs are intrinsically intensely fluorescent. Fluorescence is associated with the extended conjugation of the quinoline ring system. The liposomes of Examples 1-7 were characterized for the presence of the camptothecin drugs, using excitation and emission spectrography, and fluorescence anisotropy.
Steady-state fluorescence measurements were obtained on a SLM Model 4800C. spectrofluorometer with a thermostated cuvette compartment. This instrument was interfaced with an IBM PS/2 model 55 SX computer. Excitation and emission spectra were recorded with an excitation resolution of 8 nm and an emission resolution of 4 nm. In all cases spectra were corrected for background fluorescence and scatter from unlabeled lipids or from solvents by subtraction of the spectrum of a blank. Steady-state fluorescence intensity measurements were made in the absence of polarizer. Steady-state anisotropy (a) measurements were determined with the instrument in the "T-format" for simultaneous measurement of two polarized intensities. The alignment of polarizers were checked routinely using a dilute suspension of 0.25 μm polystyrene microspheres from Polysciences, Inc, Warrington, Pa., in water; anisotropy values of >0.99 were obtained. The anisotropy was calculated from a=(Ivv -GlVH)/(Ivv +GIVH), where G-IVH /IHH and the subscripts refer to vertical and horizontal orientations of the excitation and emission polarizers, respectively.
Anisotropy measurements for camptothecin, camptothecin carboxylate sodium salt, and 10,11-methylenedioxycamptothecin were conducted using exciting light of 370 nm and 420 nm long wave pass filters on each emission channel in order to isolate the fluorescence signal from background scatter and signal. For topotecan a 400 nm excitation wavelength and a 500 nm emission filter were used and for 9-aminocamptothecin a 375 nm excitation and a wavelength 420 nm emission filter were used. For AMC and CMC, a 370 nm excitation wavelength and a 400 nm emission filter were used. For 10-hydroxycamptothecin 375 nm excitation wavelength 500 nm emission filter was used. Emission filters were obtained from Oriel Corp. Stamford, Conn. The combination of exciting light and emission filters allows one to adequately separate the fluorescence from the background signal. The contribution of background fluorescence, together with scattered light, was typically less than 1% of the total intensity. Since the lactone ring of the camptothecin drug undergoes hydrolysis in aqueous medium, all measurements were completed within the shortest possible time, less than 1 minute after mixing the drug stock solution with PBS or the liposomes. In each case, analysis was initiated immediately after mixing the drug stock solution with PBS or with the liposomes. All measurements were performed at 37° C. unless otherwise noted.
The relative fluorescence intensity of 1×10^-6 M of camptothecin free in PBS buffer at 37° C. is shown. The emission spectra of the camptothecin was recorded using exciting light of 370 nm.
An exciting light of 390 nm was used to record the emission spectra of topotecan. A decrease in the emission intensity is observed for topotecan associated with the DMPG liposome.
All spectra were recorded using camptothecin drug concentrations of 2
μM. The DMPC and DMPG concentrations were 0.29 M. Experiments were
conducted in PBS buffer at 37° C.
Also found in Table II is a relative index of the emission intensity levels from these camptothecin drugs in PBS at their respective excitation and emission λMAX.

Data set [3] in a line: Overall association constant by fluorescence anisotropy titration, DSPC liposomes. Particulars: for overall association constant K, DSPC: DSPC (electroneutral, solid phase), PBS, 37° C.
Procedure: While the spectral changes provide qualitative evidence that the camptothecin drugs bind the liposome membranes, fluorescence anisotropy titration, offers the most sensitive means for quantitatively assessing the extent of the binding. The fluorescence anisotropy titration was performed according to the method of Burke and Tritton, Biochemistry 24: 1768-1776 (1985).
The concentrations of free camptothecin drugs and camptothecin drugs associated with liposomes were determined at various lipid concentrations. […] The titration was conducted at camptothecin drug concentration of 1×10^-6 M in PBS at 37° C. Anisotropy values at each lipid concentration were determined within less than 30 seconds following the addition of the camptothecin drugs to the liposome suspension. […] By varying the lipid concentration rather than varying the drug concentration, the problem of self-association phenomenon which occurs for camptothecin drugs concentrations in excess of 10 μM is avoided. Also, the well-known phenomenon known as inner filter effect which occurs using fluorescent material at high optical densities is a is avoided.
Overall association constants are defined as:
where [AB ] represents the concentration of the camptothecin drug bound to the vesicle membrane, [AF ] represents the concentration of free drug, and [L] represents the total lipid concentration in the liposome suspension. This equation is valid when the concentration of free lipid is approximately equal to the concentration of total lipid, that is, the concentration of free lipid is in great excess over the concentration of bound drug. Provided this concentration is satisfied, K may be determined from the inverse of the slope of a double reciprocal plot according to (Burke and Tritton, Biochemistry 24:1776, 1985). In such a plot, 1/bound fraction of the total camptothecin drug is plotted vs. 1/[lipid], with a y-intercept value of 1.

“Also recorded” adds a separate entry of the source. A value given as a limit tells only on which side of the number the result lay.

As to `CCC1(O)C(=O)OCc2c1cc1n(c2=O)Cc2cc3cc(O)ccc3nc2-1` (centres unmarked) [10-hydroxycamptothecin], in data set [1] (free in PBS, pH 7.4, 37° C.), the “carboxylate/lactone ratio (C/L) free drug” value is listed as 5.4 and the t1/2 free drug came out at 23.9 min. Moreover, in data set [2], the “λMAX emission, DMPC” value is 558 nm; the “λMAX emission, DMPG” value is given as 550 nm; the “λMAX emission, PBS” value came to 561 nm; the “Relative Fluorescence” value stood at 0.5. For the same compound, the λMAX excitation in data set [2] (37° C.) was 392 nm.

`CCC1(O)C(=O)OCc2c1cc1n(c2=O)Cc2cc3cc4c(cc3nc2-1)OCO4` (centres unmarked) [10,11-methylenedioxycamptothecin]: in data set [1], the “lactone hydrolysis when associated with liposomes” value is reported as “little hydrolysis even at 48 hours” and the “biologically active (lactone) form present after 48 hours” value (“biologically active” for short) is given as “more than 97%”. Also, in data set [1] (pH 7.4, 37° C.), the “C/L drug DMPC Lip.” value is listed as ~ 0, the “t1/2 drug DMPC Lip.” value was more than 72 h, the “C/L drug DMPG Lip.” value is reported as ~ 0 and the “t1/2 drug DMPG Lip.” value is more than 72 h. For the same compound, in data set [1] (free in PBS, pH 7.4, 37° C.), the “carboxylate/lactone ratio (C/L) free drug” value is on record as 3.3, the “half-life (t1/2) of free drug in PBS” value came to 28.7 min and the t1/2 free drug was 28.7 min. Moreover, the degraded at 1 h in data set [1] (pH 7.4, free in PBS, less than 1 hour, read-out: drug hydrolyzed in less than 1 hour) was more than 70%. Besides, the “drug stabilized at 5 hours” value in data set [1] (sorbitan mono-oleate micelles, 5 hours) amounted to 50%. In addition, in data set [2], the “λMAX emission, DMPC” value amounted to 408 nm; the “λMAX emission, DMPG” value is 408 nm; the “λMAX emission, PBS” value is recorded as 410 nm; the “Relative Fluorescence” value came to 1. In addition, the λMAX excitation in data set [2] (37° C.) was determined as 395 nm.

For `CCC1(O)C(=O)OCc2c1cc1n(c2=O)Cc2cc3c(Cl)c4c(cc3nc2-1)OCO4` (centres unmarked) [9-chloro-10,11-methylenedioxycamptothecin], the “overall association constant K, DSPC” value in data set [3] stood at 500 M⁻¹. In data set [1], the “duration of stability when bound to liposomes” value is “at least 48 hours” and the “biologically active” value is “more than 97%”. For the same compound, in data set [1] (pH 7.4, 37° C.), the “C/L drug DMPC Lip.” value is listed as ~ 0, the “t1/2 drug DMPC Lip.” value was more than 72 h, the “C/L drug DMPG Lip.” value was ~ 0 and the “t1/2 drug DMPG Lip.” value was more than 72 h. In data set [1] (DSPC MLVs), the “effect of liposome lysis by sonication” value is listed as “releases 9-chloro-10,11-methylenedioxycamptothecin which is then hydrolysed”. In addition, the “effect of liposome lysis by sonication” value in data set [1] (DSPC MLVs, listed as CMC) is “at least partially released and hydrolysed”. In addition, the “lactone ring not hydrolysed in pH 5 DSPC liposomes” value in data set [1] (DSPC MLVs, internal pH 5) was “More than 80%”. In data set [1] (free in PBS, pH 7.4, 37° C.), the “carboxylate/lactone ratio (C/L) free drug” value was 6.4, the “half-life (t1/2) of free drug in PBS” value is on record as “approximately 21 min” and the t1/2 free drug was 21.3 min. Further, in data set [2], the “λMAX emission, DMPG” value turned out to be 417 nm; the “λMAX emission, PBS” value was found to be 410 nm; the “Relative Fluorescence” value is 1. Further, the λMAX excitation in data set [2] (37° C.) came out at 394 nm.

Turning to `CC[C@@]1(O)C(=O)OCc2c1cc1n(c2=O)Cc2cc3c(CN(C)C)c(O)ccc3nc2-1` [topotecan], the “binding preference for DSPC liposomes over DMPC liposomes” value in data set [3] (dspc over dmpc liposomes) was 5 -fold. In addition, the “lactone hydrolysis when associated with liposomes” value in data set [1] is recorded as “some hydrolysis at 1 hour; also recorded: stabilized to a greater degree in DMPG liposomes as compared to DMPC liposomes”. Further, in data set [1] (pH 7.4, 37° C.), the “C/L drug DMPC Lip.” value turned out to be 3.4, the “t1/2 drug DMPC Lip.” value worked out at 1.25 h, the “C/L drug DMPG Lip.” value is on record as 0.42 and the “t1/2 drug DMPG Lip.” value was found to be 1.6 h. Further, in data set [1] (free in PBS, pH 7.4, 37° C.), the “carboxylate/lactone ratio (C/L) free drug” value stood at 7.5 and the t1/2 free drug amounted to 21.1 min. Besides, in data set [2] (1 μM, DMPG liposomes), the “shifting in the emission spectrum with DMPG liposomes” value is given as “Only a slight shifting in the emission spectrum”. In data set [2], the “λMAX emission, DMPC” value worked out at 538 nm; the “λMAX emission, DMPG” value was found to be 533 nm; the “λMAX emission, PBS” value turned out to be 537 nm; the “Relative Fluorescence” value turned out to be 1. Besides, in data set [2] (37° C.), the λMAX excitation was 410 nm.

Consider `CC[C@@]1(O)C(=O)OCc2c1cc1n(c2=O)Cc2cc3ccccc3nc2-1` [camptothecin], for which, in data set [3], the “overall association constant K, DSPC” value amounted to 300 M⁻¹. In data set [3] (solid-phase DSPC over fluid-phase DMPC), the “binding preference for DSPC liposomes over DMPC liposomes” value is listed as 3 -fold. The “lactone ring hydrolysis at raised drug concentration” value in data set [1] (2 mM, lipid to drug ratio 150, DMPC) was “no evidence of lactone ring hydrolysis was observed”. For the same compound, in data set [1], the “duration of stability when bound to liposomes” value is given as “at least 48 hours” and the “biologically active” value is “more than 97%”. In addition, in data set [1] (pH 7.4, 37° C.), the “C/L drug DMPC Lip.” value was ~ 0, the “t1/2 drug DMPC Lip.” value was more than 72 h, the “C/L drug DMPG Lip.” value is ~ 0 and the “t1/2 drug DMPG Lip.” value was more than 72 h. Also, the “C/L drug DSPC Lip.” value in data set [1] (DSPC liposomes, pH 7.4, 37° C.) is reported as ~ 3.4. In data set [1] (free in PBS, pH 7.4, 37° C.), the “carboxylate/lactone ratio (C/L) free drug” value came out at 6.8, the “half-life (t1/2) of free drug in PBS” value is 16.6 min and the t1/2 free drug was determined as 16.6 min. In data set [2], the “λMAX emission, DMPC” value worked out at 433 nm; the “λMAX emission, DMPG” value was determined as 422 nm; the “λMAX emission, PBS” value is given as 438 nm; the “Relative Fluorescence” value is given as 1. Besides, the “spectral shift on association with DMPC liposomes” value in data set [2] (DMPC, relative to free drug) was “about 5 nm”. For the same compound, in data set [2] (37° C.), the λMAX excitation is 366 nm. Also, the “blue shift of emission λmax on binding DMPG liposomes” value in data set [2] (relative to free camptothecin, 1×10^-6 M, 37° C.) is “about 16 nm”.

Source of the values: patent US5552156A, “Liposomal and micellular stabilization of camptothecin drugs” (Ohio State University, priority 1995, dated 1996).
